Consider five compounds from patent publication US20230143604A1, “QW DOSING OF GIP RECEPTOR AGONIST PEPTIDE COMPOUNDS AND USES THEREOF” (TAKEDA PHARMACEUTICAL COMPANY LIMITED, priority 2020, published 2023).

Data set [1] is described as follows: Human plasma protein binding (PPB). The class given is in vitro ADME. As to conditions: both sexes, pH 7.4; fraction unbound; human plasma, 1000 nmol/L peptide, ultracentrifugation; read-out: Human PPB (FUplasma). How it is done: Stock solutions: (1000 μM) of the peptides are prepared in DMSO.
Human plasma (mixed gender; containing K2-EDTA as anti-coagulant; pre-adjusted to pH 7.4—NB alternative species may be used) is spiked individually with each test peptide (1000 nmol/L), sampled for analysis and then incubated (n=4) at 37° C. in a water bath for 30 minutes. Following the incubation period, the plasma is sampled for analysis, then transferred to ultracentrifugation tubes and centrifuged (n=3) at […] and 4° C. for 3 hours, after which the supernatant is sampled for analysis. An additional aliquot of the supernatant is taken at the end of the centrifugation period to determine the total protein concentration. An aliquot of the incubated plasma will be stored at 4° C. for 3 hours and then sampled for analysis. At the point of sampling, all samples are matrix-matched, treated with ice-cold acetonitrile/methanol (4:1 (vfv)) containing internal standard, centrifuged al 2000 g and 4° C. for 10 minutes and stored prior to LC-MS/MS analysis. An appropriate positive control compound control will be incubated and centrifuged in parallel; control plasma is also centrifuged to generate samples for matrix-matching. Fraction unbound in plasma (Fuplasma) values is determined by comparison of the analyte response in plasma to the analyte response in the supernatant, determined via peak area response ratios.
The samples are analyzed by LC-MS/MS using a 6500 (or equivalent) triple quadrupole mass spectrometer (AB Sciex) coupled to an appropriate Liquid Chromatography (LC) system. Protein binding and stability values are determined via peak area ratios using multiple reaction monitoring (MRM) parameters following compound optimisation. Multiple reaction monitoring (MRM) is a highly sensitive method of targeted mass spectrometry (MS) that can be used to selectively detect and quantify peptides based on the screening of specified precursor peptide-to-fragment ion transitions.

Data set [2] in a line: Dog plasma protein binding (PPB). In kind it is in vitro ADME. The settings on record: pH 7.4; fraction unbound; dog serum; read-out: Dog PPB (FUplasma). The source says: Dog PPB values presented below are obtained essentially as described for Human PPB samples, with the difference being that dog serum is used instead of human serum. Table 10 is provided with the values of (Fu,plasma) as fraction unbound expressed as a percentage compared to the percent bound. i.e. if the value is 0.0123, then the fraction unbound is […], which is 1.23% of the peptide is unbound and 98.77% is bound in plasma. Methods and analysis for performing the dog PPB protocol and results are the same as noted herein as for the Human PPB protocol and analysis.

Data set [3] in a line: physchem. Put shortly: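 Solubility at pH 7.4 determined by stepwise addition of 200 mM phosphate buffer in 100 μL increments to 3 mg peptide, mixing briefly each time, until no insoluble material remained, then measured by liquid chromatography.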
Data set [4] addresses T1, human GLP-1R (Homo sapiens, UniProt P43220).
T1 construct: HEK-293T cells overexpressing full-length human GLP-1R; FLAG (N); host or cells: HEK-293T
The data set can be described thus: Human GLP1R agonist activity, intracellular cAMP accumulation. The class given is cell-based. The settings on record: HEK-293T cells overexpressing human GLP-1R, 1 hr. Put shortly: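 cAMP accumulation is measured by HTRF after a 1 hr, room-temperature, dark exposure of thawed cells (4×10^5 cells/mL in Krebs Ringer buffer) to compound. Activity is scaled between DMSO alone as 0% and 1 nm GLP-1 as 100%.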
(cAMP levels reflect the balance of adenylyl cyclase and phosphodiesterase activity.)

Data set [5] concerns C57BL/6J mice. The data set can be described thus: Oral glucose tolerance test (OGTT). The class given is in vivo. As to conditions: 3 nmol/kg s.c., 24 hours before glucose loading. Summed up: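 Peptide or vehicle given s.c. at 0.1, 0.3, 3 or 10 nmol/kg (peptide-dependent), 24 h before oral 50% dextrose at 5 ml/kg unless stated otherwise. Blood glucose read at 0, 15, 30 and 60 min. % inhibition = (1−(AUC cpd−AUC naïve)/(AUC veh−AUC naïve))×100.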

The mark [6] stands for this setting: read-out: Human GLP1R cAMP EC50, HEK293T.

Structures are written as SMILES. Read-outs that look alike come from different tables or passages of the source. Starred links: 1 amine or outer side, 2 acyl side, 3 side chain; linkers in the order of their positions; H or OH if unused. Non-standard residues stand in square brackets, D forms with d. Residues, ends and D or L forms follow the SMILES beside them. Groups on a side chain read outwards from the residue. *: point of attachment. C20 diacid = O=C(O)CCCCCCCCCCCCCCCCCCC(=O)*; γGlu = O=C(O)[C@H](CCC(=O)[*:2])N[*:1]; NMeY = CN[C@@H](Cc1ccc(O)cc1)C(=O)O; AEEA = NCCOCCOCC(=O)O; Aib = CC(C)(N)C(=O)O

T1 sequence (P43220 24-463): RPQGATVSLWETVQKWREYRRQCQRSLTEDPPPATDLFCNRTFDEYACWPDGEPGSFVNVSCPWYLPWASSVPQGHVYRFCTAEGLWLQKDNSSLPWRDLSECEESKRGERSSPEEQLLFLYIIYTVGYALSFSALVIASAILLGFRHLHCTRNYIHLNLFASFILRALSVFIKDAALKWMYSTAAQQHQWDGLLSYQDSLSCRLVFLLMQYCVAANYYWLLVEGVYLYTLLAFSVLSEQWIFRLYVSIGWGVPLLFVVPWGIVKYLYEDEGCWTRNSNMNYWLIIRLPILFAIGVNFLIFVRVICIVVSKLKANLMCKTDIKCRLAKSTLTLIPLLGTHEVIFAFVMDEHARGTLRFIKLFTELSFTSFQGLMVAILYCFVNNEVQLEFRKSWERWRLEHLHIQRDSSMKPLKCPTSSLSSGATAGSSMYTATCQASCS

With `CC[C@H](C)[C@H](NC(=O)[C@H](CO)NC(=O)[C@H](Cc1ccc(O)cc1)NC(=O)[C@H](CC(=O)O)NC(=O)[C@H](CO)NC(=O)[C@@H](NC(=O)[C@H](Cc1ccccc1)NC(=O)[C@@H](NC(=O)CNC(=O)[C@H](CCC(=O)O)NC(=O)C(C)(C)NC(=O)[C@H](Cc1ccc(O)cc1)NC)[C@@H](C)O)[C@@H](C)CC)C(=O)N[C@@H](C)C(=O)N[C@@H](CC(C)C)C(=O)N[C@@H](CC(=O)O)C(=O)N[C@@H](CCCNC(=N)N)C(=O)NC(C)(C)C(=O)N[C@@H](C)C(=O)N[C@@H](CCC(N)=O)C(=O)NC(C)(C)C(=O)N[C@@H](CCCCNC(=O)COCCOCCNC(=O)COCCOCCNC(=O)CC[C@H](NC(=O)CC[C@H](NC(=O)CCCCCCCCCCCCCCCCCCC(=O)O)C(=O)O)C(=O)O)C(=O)N[C@@H](Cc1ccccc1)C(=O)N[C@H](C(=O)N[C@@H](CC(N)=O)C(=O)N[C@@H](Cc1c[nH]c2ccccc12)C(=O)N[C@@H](CC(C)C)C(=O)N[C@@H](CC(C)C)C(=O)N[C@@H](C)C(=O)N[C@@H](CCC(N)=O)C(=O)N[C@@H](CCCCN)C(=O)NCC(=O)O)C(C)C` [Compound 39] (H-[NMeY][Aib]EGTFISDYSIALDR[Aib]AQ[Aib]K([AEEA-AEEA-γGlu-γGlu-C20 diacid])FVNWLLAQKG-OH), the results for the fraction unbound in data set [1] and in data set [2] were 0.0112 and 0.0015, respectively. Further, the solubility – broadly, how much of the substance goes into solution per volume – in data set [3] (pH 7.4) is not below 15 mg/mL; in data set [3] (pH 7.4, aqueous buffer), not below 30 mg/mL.

As for `CC[C@H](C)[C@H](NC(=O)[C@H](CO)NC(=O)[C@H](Cc1ccc(O)cc1)NC(=O)[C@H](CC(=O)O)NC(=O)[C@H](CO)NC(=O)[C@@H](NC(=O)[C@H](Cc1ccccc1)NC(=O)[C@@H](NC(=O)CNC(=O)[C@H](CCC(=O)O)NC(=O)C(C)(C)NC(=O)[C@H](Cc1ccc(O)cc1)NC)[C@@H](C)O)[C@@H](C)CC)C(=O)N[C@@H](C)C(=O)N[C@@H](CCCCNC(=O)CNC(=O)CNC(=O)CNC(=O)CNC(=O)CNC(=O)CCCCCCCCCCCCCCCCC(=O)O)C(=O)N[C@@H](CC(=O)O)C(=O)N[C@@H](CCCNC(=N)N)C(=O)NC(C)(C)C(=O)N[C@@H](C)C(=O)N[C@@H](CCC(N)=O)C(=O)NC(C)(C)C(=O)N[C@@H](CC(=O)O)C(=O)N[C@@H](Cc1ccccc1)C(=O)N[C@H](C(=O)N[C@@H](CC(N)=O)C(=O)N[C@@H](Cc1c[nH]c2ccccc12)C(=O)N[C@@H](CC(C)C)C(=O)N[C@@H](CC(C)C)C(=O)N[C@@H](C)C(=O)N[C@@H](CCC(N)=O)C(=O)N[C@@H](CCCCNC(C)=O)C(=O)NCC(=O)O)C(C)C` [Compound 81], the EC50 (commonly the concentration giving half of the maximal effect) in data set [4] (setting [6]) turned out to be 33.9 nM. Moreover, the “Oral Glucose Tolerance Test Percent decrease in blood glucose AUC (%) over 60 mins” value in data set [5] is on record as 66% (3 nmol/kg). Also, the solubility in data set [3] (pH 7.4) is not below 15 mg/mL; in data set [3] (pH 7.4, aqueous buffer) it was not below 30 mg/mL.

Turning to `CC[C@H](C)[C@H](NC(=O)[C@H](Cc1ccccc1)NC(=O)[C@@H](NC(=O)CNC(=O)[C@H](CCC(=O)O)NC(=O)C(C)(C)NC(=O)[C@H](Cc1ccc(O)cc1)NC)[C@@H](C)O)C(=O)N[C@@H](CO)C(=O)N[C@@H](CC(=O)O)C(=O)N[C@@H](Cc1ccc(O)cc1)C(=O)N[C@@H](CO)C(=O)N[C@H](C(=O)NC(C)(C)C(=O)N[C@@H](CCCCNC(=O)CNC(=O)CNC(=O)CNC(=O)CNC(=O)CNC(=O)CCCCCCCCCCCCCCCCC(=O)O)C(=O)N[C@@H](CC(=O)O)C(=O)N[C@@H](CCCNC(=N)N)C(=O)NC(C)(C)C(=O)N[C@@H](C)C(=O)N[C@@H](CCC(N)=O)C(=O)NC(C)(C)C(=O)N[C@@H](CC(=O)O)C(=O)N[C@@H](Cc1ccccc1)C(=O)N[C@H](C(=O)N[C@@H](CC(N)=O)C(=O)N[C@@H](Cc1c[nH]c2ccccc12)C(=O)N[C@@H](CC(C)C)C(=O)N[C@@H](CC(C)C)C(=O)N[C@@H](C)C(=O)N[C@@H](CCC(N)=O)C(=O)N[C@@H](CO)C(=O)N1CCC[C@H]1C(=O)N[C@@H](CO)C(=O)N[C@@H](CO)C(=O)NCC(=O)N[C@@H](C)C(=O)N1CCC[C@H]1C(=O)N1CCC[C@H]1C(=O)N1CCC[C@H]1C(=O)N[C@@H](CO)C(N)=O)C(C)C)[C@@H](C)CC` [Compound 48], the EC50 in data set [4] (Human GLP1R cAMP EC50, HEK293T (nM)) worked out at 87.1 nM. In data set [5], the “Oral Glucose Tolerance Test Percent decrease in blood glucose AUC (%) over 60 mins” value is 87% (3 nmol/kg). The solubility in data set [3] (pH 7.4, aqueous buffer, pH 7.4 Phosphate Buffer - Solubility, 200 mM Phosphate buffer pH 7.4) is not below 30 mg/mL; in data set [3] (pH 7.4, solubility in phosphate buffer at pH 7.4, 200 mM phosphate buffer pH 7.4), not below 15 mg/mL.

For the compound `CC[C@H](C)[C@H](NC(=O)[C@H](Cc1ccccc1)NC(=O)[C@@H](NC(=O)CNC(=O)[C@H](CCC(=O)O)NC(=O)C(C)(C)NC(=O)[C@@H](N)Cc1ccc(O)cc1)[C@@H](C)O)C(=O)N[C@@H](CO)C(=O)N[C@@H](CC(=O)O)C(=O)N[C@@H](Cc1ccc(O)cc1)C(=O)N[C@@H](CO)C(=O)N[C@H](C(=O)NC(C)(C)C(=O)N[C@@H](CCCCNC(=O)CNC(=O)CNC(=O)CNC(=O)CNC(=O)CNC(=O)CCCCCCCCCCCCCCCCC(=O)O)C(=O)N[C@@H](CC(=O)O)C(=O)N[C@@H](CCCNC(=N)N)C(=O)N[C@@H](C)C(=O)N[C@@H](C)C(=O)N[C@@H](CCC(N)=O)C(=O)NC(C)(C)C(=O)N[C@@H](CC(=O)O)C(=O)N[C@@H](Cc1ccccc1)C(=O)N[C@H](C(=O)N[C@@H](CCC(=O)O)C(=O)N[C@@H](Cc1c[nH]c2ccccc12)C(=O)N[C@@H](CC(C)C)C(=O)N[C@@H](CC(C)C)C(=O)N[C@@H](C)C(=O)N[C@@H](CCC(N)=O)C(=O)N[C@@H](CCCNC(=N)N)C(=O)NCC(=O)O)C(C)C)[C@@H](C)CC` [Compound 145], the EC50 in data set [4] (setting [6]) was 9.33 nM. In addition, in data set [5], the “Oral Glucose Tolerance Test Percent decrease in blood glucose AUC (%) over 60 mins” value is reported as 52% (3 nmol/kg). The solubility in data set [3] (pH 7.4) is not below 15 mg/mL; in data set [3] (pH 7.4, aqueous buffer), not below 30 mg/mL.

Consider `CC[C@H](C)[C@H](NC(=O)[C@H](CO)NC(=O)[C@H](Cc1ccc(O)cc1)NC(=O)[C@H](CC(=O)O)NC(=O)[C@H](CO)NC(=O)[C@@H](NC(=O)[C@H](Cc1ccccc1)NC(=O)[C@@H](NC(=O)CNC(=O)[C@H](CCC(=O)O)NC(=O)C(C)(C)NC(=O)[C@H](Cc1ccc(O)cc1)NC)[C@@H](C)O)[C@@H](C)CC)C(=O)N[C@@H](C)C(=O)N[C@@H](CCCCNC(=O)CNC(=O)CNC(=O)CNC(=O)CNC(=O)CNC(=O)CCCCCCCCCCCCCCCCC(=O)O)C(=O)N[C@@H](CC(=O)O)C(=O)N[C@@H](CCCNC(=N)N)C(=O)NC(C)(C)C(=O)N[C@@H](C)C(=O)N[C@@H](CCC(N)=O)C(=O)NC(C)(C)C(=O)N[C@@H](CC(N)=O)C(=O)N[C@@H](Cc1ccccc1)C(=O)N[C@H](C(=O)N[C@@H](CC(N)=O)C(=O)N[C@@H](Cc1c[nH]c2ccccc12)C(=O)N[C@@H](CC(C)C)C(=O)N[C@@H](CC(C)C)C(=O)N[C@@H](C)C(=O)N[C@@H](CCC(N)=O)C(=O)N[C@@H](CO)C(=O)N1CCC[C@H]1C(=O)NCC(=O)O)C(C)C` [Compound 114], for which the EC50 in data set [4] (setting [6]) was determined as 11.7 nM. In addition, the “Oral Glucose Tolerance Test Percent decrease in blood glucose AUC (%) over 60 mins” value in data set [5] is recorded as 50% (3 nmol/kg). Moreover, the solubility in data set [3] (pH 7.4) was not below 15 mg/mL; in data set [3] (pH 7.4, aqueous buffer) it was not below 30 mg/mL.
